In patent US20230331739A1, “INDOLO HEPTAMYL OXIME ANALOG CRYSTAL AS PARP INHIBITOR AND METHOD FOR PREPARING SAME” (CHIA TAI TIANQING PHARMACEUTICAL GROUP CO., LTD., priority 2020, published 2023):

Key:
[1] = test system: PARylation in Lovo cells; test: PARylation inhibition in Lovo cells; type: cell-based; settings: Homo sapiens, 25 mM H2O2
Method: Experimental materials: test compounds, F12K medium, Lovo cells, Anti-Poly (ADP-ribose) mouse monoclonal antibody; FITC-labeled goat anti-mouse IgG; hydrogen peroxide; DAPI; PBS; methanol; acetone; Tween-20; skimmed milk powder; Envision Multimode Plate Reader.
Day One: Lovo cells were seeded on a plate at 60,000 cells/well, and then incubated overnight at 37° C./5% CO2.
1. Washing solution: Tween-20 was added to 1×PBS, and the final concentration of Tween-20 was 0.05%.
2. Blocking solution: Skimmed milk powder was added to the washing solution, and the final concentration of the skimmed milk powder was 5%.
3. Cell immobilization solution: Methanol and acetone were mixed in a ratio of 7:3.
Preparation of test compounds: Compound intermediate plate 1: The compound was diluted to final concentrations of 10 μM to 0.13 nM with DMSO and PBS, and the concentration of DMSO was 1%; Compound intermediate plate 2: The compound was diluted to final concentrations of 10 μM to 0.13 nM with DMSO and PBS containing 50 mM hydrogen peroxide, and the concentration of DMSO was 1%.
1. […]
10. […] After removal of the liquid, corresponding fluorescence values were read on Envision: FITC: 480 nm and 530 nm; DAPI: 360 nm and 460 nm. […]

[2] = Protein binding rate in plasma (equilibrium dialysis), human; type: in vitro ADME; settings: 4 h dialysis
Method: (§1) The protein binding rates of the compound disclosed herein in plasma of human, CD-1 mice and SD rats were determined. 796 μL of blank plasma was taken from human, CD-1 mice or SD rats, and 4 μL of test compound working solution (400 μM) or warfarin working solution (400 μM) was added to achieve a final concentration of 2 μM of both the test compound and the warfarin in the plasma sample. The samples were mixed well. The final concentration of organic phase DMSO was 0.5%; 50 μL of test compound and warfarin plasma sample was pipetted into a sample receiving plate (in triplicate), and a corresponding volume of blank plasma or buffer was immediately added such that the final volume in each sample well was 100 μL. The volume ratio of plasma to dialysis buffer was 1:1. […] All samples were subjected to LC/MS analysis after protein precipitation, and the protein binding rates and the recovery rates were calculated by the following formulas: protein unbinding rate (%)=100× drug concentration passing through dialysis membrane/drug concentration not passing through dialysate; protein binding rate (%)=100−protein unbinding rate (%); recovery rate (%)=100×(drug concentration passing through dialysis membrane+drug concentration not passing through dialysate)/total drug concentration before dialysis.

[3] = Protein binding rate in plasma (equilibrium dialysis), CD-1 mouse; type: in vitro ADME; settings: CD-1 mouse plasma, 4 h dialysis
Method: as §1

[4] = Metabolic stability in liver microsomes, human; type: in vitro ADME; settings: 1 μM, 0.5 mg/mL
Method: Objective: To test the metabolic stability of the test compound in liver microsomes of three species.
Procedures: 1 μM test compound and microsomes (0.5 mg/mL) were incubated at 37° C. in the presence of an NADPH regeneration system. Positive controls were testosterone ([…]), propylamine propiophenone (2D6 substrate) and diclofenac (2C9 substrate). At 37° C., positive controls were incubated with microsomes (0.5 mg/mL) in the presence of an NADPH regeneration system. The reaction was stopped by direct mixing of the sample with cold acetonitrile containing an internal standard at various time points (0, 5, 10, 20, 30 and 60 min). The compound and microsomes were incubated for 60 min in the absence of an NADPH regeneration system. One replicate (n=1) was set at each time point. The samples were analyzed by LC/MS/MS; the concentration of the compound was characterized by the ratio of the analyte peak area to the internal standard peak area.

With C[C@]1(c2ccc(-c3[nH]c4cc(F)cc5c4c3CONC5=O)cc2)CCCN1 [Compound 1] the IC50 [1] was 19 nM, the fraction unbound at 4 h, 2 μM [2] was 0.149 and the fraction unbound at 4 h, 2 μM [3] was 0.104. The “Residual content after 60 min of incubation” value [4] was 35.9%.
